Assay results taken from US20250230155A1 (Vanderbilt University, priority 2021, published 2025).
pEC50: −log10 of the molar value.

Target: T1, human mAChR M4 (Homo sapiens, UniProt P08173)
T1 construct: expressed in transfected cells
T1 sequence (P08173 1-479): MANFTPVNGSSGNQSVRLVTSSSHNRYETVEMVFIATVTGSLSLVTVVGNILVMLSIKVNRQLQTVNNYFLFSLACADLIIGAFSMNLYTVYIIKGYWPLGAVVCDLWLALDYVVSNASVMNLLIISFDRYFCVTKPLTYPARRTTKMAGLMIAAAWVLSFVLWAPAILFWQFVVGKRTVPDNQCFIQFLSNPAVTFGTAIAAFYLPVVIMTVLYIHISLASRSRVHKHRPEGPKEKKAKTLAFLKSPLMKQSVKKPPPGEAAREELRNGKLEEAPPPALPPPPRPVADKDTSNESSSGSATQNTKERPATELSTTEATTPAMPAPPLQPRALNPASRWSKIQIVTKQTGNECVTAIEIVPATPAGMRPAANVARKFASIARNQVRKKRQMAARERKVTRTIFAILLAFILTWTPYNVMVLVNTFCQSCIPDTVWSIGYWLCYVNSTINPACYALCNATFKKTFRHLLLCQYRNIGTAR
Experiment: mAChR M4 cell-based functional assay (calcium mobilization, CHO-K1 hM4-Gqi5 cells)
Conditions: for Emax at 30 µM: CHO-K1, % ACh maximum at 30 μM, human M4; for pEC50: positive allosteric modulator activity, increase in the EC20 acetylcholine response, CHO-K1 hM4-Gqi5 cells, read-out: Human M4 EC50
Summary of the method: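 CHO-K1 cells stably expressing human M4 with chimeric Gqi5, loaded with Fluo-4 AM; compounds given as 11-point 1:3 curves and calcium flux read on FDSS at 1 Hz. Acetylcholine EC20 added at 144 s, EC80 at 230 s; agonist, PAM (EC20 potentiation) and antagonist (EC80 inhibition) EC50/Emax from four-parameter fits.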

Structure (SMILES)	Emax at 30 µM	pEC50
Cc1cc(C(=O)N2CCC2)nnc1N1CCc2ncc(-n3cccn3)cc2C1 [Example 531, (6-(3-(1H-pyrazol-1-yl)-7,8-dihydro-1,6-naphthyridin-6(5H)-yl)-5-methylpyridazin-3-yl)(azetidin-1-yl)methanone]	83%	6.62
Cc1cc(C(=O)N2CC(Cl)C2)nnc1N1CCc2ncc(-n3cccn3)cc2C1 [Example 532, (6-(3-(1H-pyrazol-1-yl)-7,8-dihydro-1,6-naphthyridin-6(5H)-yl)-5-methylpyridazin-3-yl)(3-chloroazetidin-1-yl)methanone]	90%	7.11
Cc1cc(C(=O)N2CC(F)(F)C2)nnc1N1CCc2ncc(-n3cccn3)cc2C1 [Example 533, (6-(3-(1H-pyrazol-1-yl)-7,8-dihydro-1,6-naphthyridin-6(5H)-yl)-5-methylpyridazin-3-yl)(3,3-difluoroazetidin-1-yl)methanone]	88%	6.97
Cc1cc(C(=O)N2CC(C)(O)C2)nnc1N1CCc2ncc(-n3cccn3)cc2C1 [Example 534, (6-(3-(1H-pyrazol-1-yl)-7,8-dihydro-1,6-naphthyridin-6(5H)-yl)-5-methylpyridazin-3-yl)(3-hydroxy-3-methylazetidin-1-yl)methanone]	88%	6.49
Cc1cc(C(=O)N2CC(c3cccnc3)C2)nnc1N1CCc2ncc(-n3cccn3)cc2C1 [Example 535, (6-(3-(1H-pyrazol-1-yl)-7,8-dihydro-1,6-naphthyridin-6(5H)-yl)-5-methylpyridazin-3-yl)(3-(pyridin-3-yl)azetidin-1-yl)methanone]	84%	7.07
Cc1cc(C(=O)N2CCCC2)nnc1N1CCc2ncc(N3CCO[C@H](C)C3)cc2C1 [Example 536, (R)-(5-methyl-6-(3-(2-methylmorpholino)-7,8-dihydro-1,6-naphthyridin-6(5H)-yl)pyridazin-3-yl)(pyrrolidin-1-yl)methanone]	86%	5.94
Cc1cc(C(=O)N2CCC2)nnc1N1CCc2ncc(N3CCO[C@H](C)C3)cc2C1 [Example 537, (R)-azetidin-1-yl(5-methyl-6-(3-(2-methylmorpholino)-7,8-dihydro-1,6-naphthyridin-6(5H)-yl)pyridazin-3-yl)methanone]	96%	6.88
Cc1cc(C(=O)N2CC(Cl)C2)nnc1N1CCc2ncc(N3CCO[C@H](C)C3)cc2C1 [Example 538, (R)-(3-chloroazetidin-1-yl)(5-methyl-6-(3-(2-methylmorpholino)-7,8-dihydro-1,6-naphthyridin-6(5H)-yl)pyridazin-3-yl)methanone]	103%	7.27
Cc1cc(C(=O)N2CC(F)(F)C2)nnc1N1CCc2ncc(N3CCO[C@H](C)C3)cc2C1 [Example 539, (R)-(3,3-difluoroazetidin-1-yl)(5-methyl-6-(3-(2-methylmorpholino)-7,8-dihydro-1,6-naphthyridin-6(5H)-yl)pyridazin-3-yl)methanone]	101%	7.29
Cc1cc(C(=O)N2CC(C)(O)C2)nnc1N1CCc2ncc(N3CCO[C@H](C)C3)cc2C1 [Example 540, (R)-(3-hydroxy-3-methylazetidin-1-yl)(5-methyl-6-(3-(2-methylmorpholino)-7,8-dihydro-1,6-naphthyridin-6(5H)-yl)pyridazin-3-yl)methanone]	100%	6.57
Cc1cc(C(=O)N2CC(c3cccnc3)C2)nnc1N1CCc2ncc(N3CCO[C@H](C)C3)cc2C1 [Example 541, (R)-(5-methyl-6-(3-(2-methylmorpholino)-7,8-dihydro-1,6-naphthyridin-6(5H)-yl)pyridazin-3-yl)(3-(pyridin-3-yl)azetidin-1-yl)methanone]	101%	7.21
Cc1cc(C(=O)N2CC3(COC3)C2)nnc1N1CCc2ncc(N3CCCn4nccc43)cc2C1 [Example 542, (6-(3-(6,7-dihydropyrazolo[1,5-a]pyrimidin-4(5H)-yl)-7,8-dihydro-1,6-naphthyridin-6(5H)-yl)-5-methylpyridazin-3-yl)(2-oxa-6-azaspiro[3.3]heptan-6-yl)methanone]	113%	7.19
Cc1cc(C(=O)NC2(c3ccccn3)CC2)nnc1N1CCc2ncc(N3CCCn4nccc43)cc2C1 [Example 543, 6-(3-(6,7-dihydropyrazolo[1,5-a]pyrimidin-4(5H)-yl)-7,8-dihydro-1,6-naphthyridin-6(5H)-yl)-5-methyl-N-(1-(pyridin-2-yl)cyclopropyl)pyridazine-3-carboxamide]	114%	7.33
Cc1cc(C(=O)N2CCC2)nnc1N1CCc2ncc(N3CCCn4nccc43)cc2C1 [Example 545, azetidin-1-yl(6-(3-(6,7-dihydropyrazolo[1,5-a]pyrimidin-4(5H)-yl)-7,8-dihydro-1,6-naphthyridin-6(5H)-yl)-5-methylpyridazin-3-yl)methanone]	125%	7.34
Cc1cc(C(=O)N2CC(C)C2)nnc1N1CCc2ncc(N3CCCn4nccc43)cc2C1 [Example 549, (6-(3-(6,7-dihydropyrazolo[1,5-a]pyrimidin-4(5H)-yl)-7,8-dihydro-1,6-naphthyridin-6(5H)-yl)-5-methylpyridazin-3-yl)(3-methylazetidin-1-yl)methanone]	120%	7.25
Cc1cc(C(=O)N2CCC2C)nnc1N1CCc2ncc(N3CCCn4nccc43)cc2C1 (stereo not drawn) [Example 550, (6-(3-(6,7-dihydropyrazolo[1,5-a]pyrimidin-4(5H)-yl)-7,8-dihydro-1,6-naphthyridin-6(5H)-yl)-5-methylpyridazin-3-yl)(2-methylazetidin-1-yl)methanone]	111%	7.07

The remaining lines, values ahead:

Emax at 30 µM	pEC50	Structure (SMILES)
105%	7.35	Cc1cc(C(=O)N2CC(F)(F)C2)nnc1N1CCc2ncc(N3CCCn4nccc43)cc2C1 [Example 544, (3,3-difluoroazetidin-1-yl)(6-(3-(6,7-dihydropyrazolo[1,5-a]pyrimidin-4(5H)-yl)-7,8-dihydro-1,6-naphthyridin-6(5/)-yl)-5-methylpyridazin-3-yl)methanone]
116%	7.80	Cc1cc(C(=O)N2CC(C)(F)C2)nnc1N1CCc2ncc(N3CCCn4nccc43)cc2C1 [Example 546, (6-(3-(6,7-dihydropyrazolo[1,5-a]pyrimidin-4(5H)-yl)-7,8-dihydro-1,6-naphthyridin-6(5H)-yl)-5-methylpyridazin-3-yl)(3-fluoro-3-methylazetidin-1-yl)methanone]
122%	7.40	Cc1cc(C(=O)N2CC(C)(O)C2)nnc1N1CCc2ncc(N3CCCn4nccc43)cc2C1 [Example 547, (6-(3-(6,7-dihydropyrazolo[1,5-a]pyrimidin-4(5H)-yl)-7,8-dihydro-1,6-naphthyridin-6(5H)-yl)-5-methylpyridazin-3-yl)(3-hydroxy-3-methylazetidin-1-yl)methanone]
115%	7.60	COC1CN(C(=O)c2cc(C)c(N3CCc4ncc(N5CCCn6nccc65)cc4C3)nn2)C1 [Example 548, (6-(3-(6,7-dihydropyrazolo[1,5-a]pyrimidin-4(5H)-yl)-7,8-dihydro-1,6-naphthyridin-6(5H)-yl)-5-methylpyridazin-3-yl)(3-methoxyazetidin-1-yl)methanone]
111%	7.36	Cc1cc(C(=O)N2CC(F)C2)nnc1N1CCc2ncc(N3CCCn4nccc43)cc2C1 [Example 551, (6-(3-(6,7-dihydropyrazolo[1,5-a]pyrimidin-4(5H)-yl)-7,8-dihydro-1,6-naphthyridin-6(5H)-yl)-5-methylpyridazin-3-yl)(3-fluoroazetidin-1-yl)methanone]
76%	7.66	COC1(C)CN(C(=O)c2cc(C)c(N3CCc4ncc(N5CCCn6nccc65)cc4C3)nn2)C1 [Example 552, (6-(3-(6,7-dihydropyrazolo[1,5-a]pyrimidin-4(5H)-yl)-7,8-dihydro-1,6-naphthyridin-6(5H)-yl)-5-methylpyridazin-3-yl)(3-methoxy-3-methylazetidin-1-yl)methanone]
80%	7.68	Cc1cc(C(=O)NC2(c3cccnc3)CC2)nnc1N1CCc2ncc(N3CCCn4nccc43)cc2C1 [Example 553, 6-(3-(6,7-dihydropyrazolo[1,5-a]pyrimidin-4(5H)-yl)-7,8-dihydro-1,6-naphthyridin-6(5H)-yl)-5-methyl-N-(1-(pyridin-3-yl)cyclopropyl)pyridazine-3-carboxamide]
78%	7.80	Cc1cc(C(=O)N2CC(CO)C2)nnc1N1CCc2ncc(N3CCCn4nccc43)cc2C1 [Example 554, (6-(3-(6,7-dihydropyrazolo[1,5-a]pyrimidin-4(5H)-yl)-7,8-dihydro-1,6-naphthyridin-6(5H)-yl)-5-methylpyridazin-3-yl)(3-(hydroxymethyl)azetidin-1-yl)methanone]
